The assay has as its target S1P1 (Homo sapiens, UniProt P21453). Description: CNG cAMP Assay (Assay 1). It counts as cell-based. More on the design: host or cells: HEK293 cells expressing the CNG channel. In a few lines: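 HEK293 cells expressing CNG channel and S1P1, membrane-potential dye loaded; compounds (top 10 μM, 10-point 3-fold, 1.8% DMSO) added with 25 μM Ro 20-1724, 500 nM NECA and 10 nM S1P for 90 min. T90/T0 fluorescence (Ex 350/Em 590 nm) normalised to NECA-alone vs DMSO; EC50 fitted.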

Setting [1] is: footnote 1: Relative EC50 was measured, read-out: Assay 1 Relative EC50.

SMILES strings stand for the structures. pEC50: −log10 of the molar value. Read-outs that look alike come from different tables or passages of the source.

Chain of S1P1 (P21453 whole entry): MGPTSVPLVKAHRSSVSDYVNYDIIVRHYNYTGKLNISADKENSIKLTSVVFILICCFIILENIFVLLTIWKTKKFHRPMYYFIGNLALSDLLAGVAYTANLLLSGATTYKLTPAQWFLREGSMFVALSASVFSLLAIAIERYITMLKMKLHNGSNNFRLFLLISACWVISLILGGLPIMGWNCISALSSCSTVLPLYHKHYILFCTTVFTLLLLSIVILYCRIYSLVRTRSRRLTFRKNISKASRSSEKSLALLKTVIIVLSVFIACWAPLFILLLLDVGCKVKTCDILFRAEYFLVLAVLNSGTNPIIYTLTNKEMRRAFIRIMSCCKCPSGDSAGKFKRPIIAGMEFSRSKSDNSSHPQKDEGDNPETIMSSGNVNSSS

As a reminder, the pEC50 is the negative decadic logarithm of the EC50, by convention in mol/L. With `CC(CC(=O)O)c1ccc(-c2noc(-c3cn4cc(C(F)(F)F)cc(Cl)c4n3)n2)c(F)c1` (stereo not drawn) [Example 186, 3-(4-{5-[8-chloro-6-(trifluoromethyl)imidazo[1,2-a]pyridin-2-yl]-1,2,4-oxadiazol-3-yl}-3-fluorophenyl)butanoic acid], the pEC50 (read-out: Assay 1 EC50) was 6.30 to 7.00.
The same measure, in the same setting: the figure for `Oc1ccc(-c2noc(-c3cn4cc(C(F)(F)F)cc(Cl)c4n3)n2)c(Cl)c1` [Example 187, 3-chloro-4-{5-[8-chloro-6-(trifluoromethyl)imidazo[1,2-a]pyridin-2-yl]-1,2,4-oxadiazol-3-yl}phenol] is at least 7.00; for `N[C@@H](COc1ccc(-c2noc(-c3cn4cc(C(F)(F)F)cc(Cl)c4n3)n2)c(Cl)c1)C(=O)O` [Example 188, O-(3-chloro-4-{5-[8-chloro-6-(trifluoromethyl)imidazo[1,2-a]pyridin-2-yl]-1,2,4-oxadiazol-3-yl}phenyl)serine] it is 6.30 to 7.00; for `CC(Cc1ccc(-c2noc(-c3cn4cc(C(F)(F)F)cc(Br)c4n3)n2)c(Cl)c1)C(=O)O` (stereo not drawn) [Example 189, 3-(4-{5-[8-bromo-6-(trifluoromethyl)imidazo[1,2-a]pyridin-2-yl]-1,2,4-oxadiazol-3-yl}-3-chlorophenyl)-2-methylpropanoic acid] it is at least 7.00.
As for `CC(Cc1ccc(-c2noc(-c3cn4cc(C(F)(F)F)cc(Cl)c4n3)n2)c(F)c1)C(=O)O` (stereo not drawn) [Example 192, 3-(4-{5-[8-chloro-6-(trifluoromethyl)imidazo[1,2-a]pyridin-2-yl]-1,2,4-oxadiazol-3-yl}-3-fluorophenyl)-2-methylpropanoic acid], the pEC50 (read-out: Assay 1 EC50) was 6.30 to 7.00.
On the same count and under the same terms, the same measure for `NC(CC(=O)O)c1ccc(-c2noc(-c3cn4cc(C(F)(F)F)cc(Cl)c4n3)n2)c(Cl)c1` (stereo not drawn) [Example 193, 3-amino-3-(3-chloro-4-{5-[8-chloro-6-(trifluoromethyl)imidazo[1,2-a]pyridin-2-yl]-1,2,4-oxadiazol-3-yl}phenyl)propanoic acid]: 6.30 to 7.00; for `NCCOc1ccc(-c2nc(-c3cn4cc(C(F)(F)F)cc(Cl)c4n3)no2)c(Cl)c1` [Example 195, 2-[(3-chloro-4-{3-[8-chloro-6-(trifluoromethyl)imidazo[1,2-a]pyridin-2-yl]-1,2,4-oxadiazol-5-yl}phenyl)oxy]ethanamine]: 6.30 to 7.00.
For the compound `Oc1cc(Cl)c(-c2noc(-c3cn4cc(C(F)(F)F)cc(Br)c4n3)n2)cc1Cl` [Example 197, 4-{5-[8-bromo-6-(trifluoromethyl)imidazo[1,2-a]pyridin-2-yl]-1,2,4-oxadiazol-3-yl}-2,5-dichlorophenol], the pEC50 (read-out: Assay 1 EC50) is 6.30 to 7.00.
Still for that read-out and setting: the same measure for `OCCCOc1ccc(-c2noc(-c3cn4cc(C(F)(F)F)cc(Cl)c4n3)n2)c(Cl)c1` [Example 199, 3-[(3-chloro-4-{5-[8-chloro-6-(trifluoromethyl)imidazo[1,2-a]pyridin-2-yl]-1,2,4-oxadiazol-3-yl}phenyl)oxy]propan-1-ol]: 6.30 to 7.00; for `CC(N)COc1ccc(-c2noc(-c3cn4cc(C(F)(F)F)cc(Cl)c4n3)n2)c(Cl)c1` (stereo not drawn) [Example 200, 1-[(3-chloro-4-{5-[8-chloro-6-(trifluoromethyl)imidazo[1,2-a]pyridin-2-yl]-1,2,4-oxadiazol-3-yl}phenyl)oxy]propan-2-amine]: 6.30 to 7.00.
Consider `CC(Oc1cc(Cl)c(-c2nc(-c3cn4cc(C(F)(F)F)cc(Cl)c4n3)no2)cc1F)C(=O)O` (stereo not drawn) [Example 205, 2-[(5-chloro-4-{3-[8-chloro-6-(trifluoromethyl)imidazo[1,2-a]pyridin-2-yl]-1,2,4-oxadiazol-5-yl}-2-fluorophenyl)oxy]propanoic acid], for which the pEC50 under setting [1] was 6.30 to 7.00.
The same measure, in the same setting: the figure for `OCCN1CCC(Oc2ccc(-c3noc(-c4cn5cc(C(F)(F)F)cc(Cl)c5n4)n3)c(Cl)c2)C1` (stereo not drawn) [Example 210, 2-{3-[(3-chloro-4-{5-[8-chloro-6-(trifluoromethyl)imidazo[1,2-a]pyridin-2-yl]-1,2,4-oxadiazol-3-yl}phenyl)oxy]pyrrolidin-1-yl}ethanol] is 5.30 to 6.00.
Turning to `O=C(O)C1CC1c1ccc(-c2noc(-c3cn4cc(C(F)(F)F)cc(Cl)c4n3)n2)cc1Cl` (stereo not drawn) [Example 215, 2-(2-chloro-4-{5-[8-chloro-6-(trifluoromethyl)imidazo[1,2-a]pyridin-2-yl]-1,2,4-oxadiazol-3-yl}phenyl)cyclopropanecarboxylic acid], where the note is “read-out: Assay 1 EC50”, the pEC50 was at least 7.00.
`CC(CO)Oc1cc(Cl)c(-c2nc(-c3cn4cc(C(F)(F)F)cc(Cl)c4n3)no2)cc1F` (stereo not drawn) [Example 217, 2-[(5-chloro-4-{3-[8-chloro-6-(trifluoromethyl)imidazo[1,2-a]pyridin-2-yl]-1,2,4-oxadiazol-5-yl}-2-fluorophenyl)oxy]propan-1-ol]: the pEC50 (read-out: Assay 1 EC50) is at least 7.00.
The same measure, in the same setting: the figure for `CS(=O)(=O)Nc1ccc(-c2nnc(-c3cn4cc(C(F)(F)F)cc(Cl)c4n3)o2)c(Cl)c1` [Example 218, N-(3-chloro-4-{5-[8-chloro-6-(trifluoromethyl)imidazo[1,2-a]pyridin-2-yl]-1,3,4-oxadiazol-2-yl}phenyl)methanesulfonamide] is 6.30 to 7.00; for `CC(CC(=O)O)c1ccc(-c2nnc(-c3cn4cc(C(F)(F)F)cc(Cl)c4n3)o2)c(Cl)c1` (stereo not drawn) [Example 219, 3-(3-chloro-4-{5-[8-chloro-6-(trifluoromethyl)imidazo[1,2-a]pyridin-2-yl]-1,3,4-oxadiazol-2-yl}phenyl)butanoic acid] it is at least 7.00.
Same read-out and setting: the figure for `NCC(O)COc1ccc(-c2noc(-c3cn4cc(C(F)(F)F)cc(Cl)c4n3)n2)c(Cl)c1` (stereo not drawn) [Example 223, 1-amino-3-[(3-chloro-4-{5-[8-chloro-6-(trifluoromethyl)imidazo[1,2-a]pyridin-2-yl]-1,2,4-oxadiazol-3-yl}phenyl)oxy]propan-2-ol] is at least 7.00; for `Fc1cccc(F)c1-c1nc(-c2cn3cc(C(F)(F)F)cc(Cl)c3n2)no1` [Example 228, 8-chloro-2-[5-(2,6-difluorophenyl)-1,2,4-oxadiazol-3-yl]-6-(trifluoromethyl)imidazo[1,2-a]pyridine] it is 6.30 to 7.00; for `FC(F)(F)c1cc(Cl)c2nc(-c3noc(-c4ccccc4Cl)n3)cn2c1` [Example 229, 8-chloro-2-[5-(2-chlorophenyl)-1,2,4-oxadiazol-3-yl]-6-(trifluoromethyl)imidazo[1,2-a]pyridine] it is at least 7.00.
The same measure, in the same setting: the same measure for `Fc1ccccc1-c1nc(-c2cn3cc(C(F)(F)F)cc(Cl)c3n2)no1` [Example 230, 8-chloro-2-[5-(2-fluorophenyl)-1,2,4-oxadiazol-3-yl]-6-(trifluoromethyl)imidazo[1,2-a]pyridine]: 6.30 to 7.00.
For the compound `O=C(O)C1CN(Cc2ccc(-c3nc(-c4cn5cc(C(F)(F)F)cc(Cl)c5n4)no3)cc2)C1` [Example 231, 1-[(4-{3-[8-chloro-6-(trifluoromethyl)imidazo[1,2-a]pyridin-2-yl]-1,2,4-oxadiazol-5-yl}phenyl)methyl]azetidine-3-carboxylic acid], under setting [1], the pEC50 is 5.00 to 5.30.
For `Fc1ccc(-c2nc(-c3cn4cc(C(F)(F)F)cc(Cl)c4n3)no2)c(Cl)c1` [Example 232, 8-chloro-2-[5-(2-chloro-4-fluorophenyl)-1,2,4-oxadiazol-3-yl]-6-(trifluoromethyl)imidazo[1,2-a]pyridine], the pEC50 (read-out: Assay 1 EC50) was 6.30 to 7.00.
Still for that read-out and setting: the same measure for `CS(=O)(=O)Nc1cc(Cl)c(-c2nc(-c3cn4cc(C(F)(F)F)cc(Cl)c4n3)no2)cc1F` [Example 234, N-(5-chloro-4-{3-[8-chloro-6-(trifluoromethyl)imidazo[1,2-a]pyridin-2-yl]-1,2,4-oxadiazol-5-yl}-2-fluorophenyl)methanesulfonamide]: at least 7.00.
Consider `CS(=O)(=O)Nc1c(F)cc(-c2nc(-c3cn4cc(C(F)(F)F)cc(Cl)c4n3)no2)cc1Cl` [Example 236, N-(2-chloro-4-{3-[8-chloro-6-(trifluoromethyl)imidazo[1,2-a]pyridin-2-yl]-1,2,4-oxadiazol-5-yl}-6-fluorophenyl)methane sulfonamide], for which the pEC50 under setting [1] was 5.00 to 5.30.
The same measure, in the same setting: the same measure for `Cc1cc(C2CC2C(=O)O)c(F)cc1-c1nc(-c2cn3cc(C(F)(F)F)cc(Cl)c3n2)no1` (stereo not drawn) [Example 237, 2-(4-{3-[8-chloro-6-(trifluoromethyl)imidazo[1,2-a]pyridin-2-yl]-1,2,4-oxadiazol-5-yl}-2-fluoro-5-methylphenyl)cyclopropanecarboxylic acid]: 5.00 to 5.30.
With `NCC(O)COc1cc(Cl)c(-c2nnc(-c3cn4cc(C(F)(F)F)cc(Cl)c4n3)s2)cc1F` (stereo not drawn) [Example 249, 1-amino-3-[(5-chloro-4-{5-[8-chloro-6-(trifluoromethyl)imidazo[1,2-a]pyridin-2-yl]-1,3,4-thiadiazol-2-yl}-2-fluorophenyl)oxy]propan-2-ol], for the setting “read-out: Assay 1 EC50”, the pEC50 was at least 7.00.
`O=C(O)COc1ccc(-c2noc(-c3cn4cc(C(F)(F)F)cc(Cl)c4n3)n2)c(Cl)c1` [Example 253, [(3-chloro-4-{5-[8-chloro-6-(trifluoromethyl)imidazo[1,2-a]pyridin-2-yl]-1,2,4-oxadiazol-3-yl}phenyl)oxy]acetic acid]: the pEC50 (read-out: Assay 1 EC50) was 6.30 to 7.00.
Consider `CC(C)(Oc1ccc(-c2noc(-c3cn4cc(C(F)(F)F)cc(Cl)c4n3)n2)c(Cl)c1)C(=O)O` [Example 254, 2-[(3-chloro-4-{5-[8-chloro-6-(trifluoromethyl)imidazo[1,2-a]pyridin-2-yl]-1,2,4-oxadiazol-3-yl}phenyl)oxy]-2-methylpropanoic acid], for which the pEC50 under setting [1] was 5.00 to 5.30.
On to `CC(CN)Oc1ccc(-c2noc(-c3cn4cc(C(F)(F)F)cc(Cl)c4n3)n2)c(Cl)c1` (stereo not drawn) [Example 258, 2-[(3-chloro-4-{5-[8-chloro-6-(trifluoromethyl)imidazo[1,2-a]pyridin-2-yl]-1,2,4-oxadiazol-3-yl}phenyl)oxy]propan-1-amine], for which, under “read-out: Assay 1 EC50”, the pEC50 was 6.30 to 7.00.
With `Oc1cc(Cl)c(-c2noc(-c3cn4cc(C(F)(F)F)cc(Cl)c4n3)n2)cc1F` [Example 260, 5-chloro-4-{5-[8-chloro-6-(trifluoromethyl)imidazo[1,2-a]pyridin-2-yl]-1,2,4-oxadiazol-3-yl}-2-fluorophenol], the pEC50 (read-out: Assay 1 EC50) was at least 7.00.

The record behind these values is patent US20100160369A1, “S1P1 Agonists and Methods of Making And Using” (EXELIXIS, INC., priority 2008, published 2010).
